These are literature values, as cited in PMC8999965 (Materials, 2022).

Details of this series: method as in earlier work. The settings on record: for EI(PCOP=0), environmental index excluding Photochemical Oxidation Potential: PCOP score excluded from summation; for EI, overall environmental index: sum of toxicity and environmental impact scores.

For `CCN1CCOCC1` [4-ethylmorpholine], the “EI(PCOP=0), environmental index excluding Photochemical Oxidation Potential” value was 2.12 and the “EI, overall environmental index” value is reported as 2.12.

In the case of `C[S+](C)[O-]` [DMSO, dimethyl sulfoxide], the “EI(PCOP=0), environmental index excluding Photochemical Oxidation Potential” value is given as 0.26 and the “EI, overall environmental index” value is on record as 11.68.

Consider `O=CN1CCOCC1` [4-formylmorpholine], for which the “EI(PCOP=0), environmental index excluding Photochemical Oxidation Potential” value is 0.51 and the “EI, overall environmental index” value was 0.51.

For the compound `CC(C)=O` [acetone], the “EI(PCOP=0), environmental index excluding Photochemical Oxidation Potential” value is reported as 0.66 and the “EI, overall environmental index” value was 1.27.

In the case of `CC#N` [acetonitrile], the “EI(PCOP=0), environmental index excluding Photochemical Oxidation Potential” value is 1.88 and the “EI, overall environmental index” value is reported as 1.88.

`C1COCCN1` [morpholine]: the “EI(PCOP=0), environmental index excluding Photochemical Oxidation Potential” value was 2.95 and the “EI, overall environmental index” value is recorded as 2.95.
